Results reported in patent US20050144654A1, “Procedure for screening of neuroactive substance and the associated neural plasticity” (COUNCIL OF SCIENTIFIC & INDUSTRIAL RESEARCH, priority 2003, published 2005).
Counter-ions that a name gives are not always drawn. Marks after values point to notes of the source that are not given here.

Key:
[1] = test system: Drosophila melanogaster adult males (wild type Oregon-R strain); experiment: Horizontal locomotion assay (distance walked); type: in vivo; details: for Distance walked by flies, Mean: n=30; for distance walked than the control: 31 day of drug withdrawal, result in words
Method: (§1) Unless otherwise mentioned, standard methods of fly manipulation were followed. Standard fly medium consisting of agar-agar, maize powder, brown sugar, dried yeast and nipagin was used. Flies were cultured at 22±1° C., 60% RH, and 12 hrs light (9 AM to 9 PM) and 12 hours dark cycle. D. melanogaster wild type Oregon-R strain was used in the experiment. To obtain males for control and drug treatment, flies from identical cultures grown in glass vials were first allowed to lay eggs in milk bottles containing medium. Flies were shifted to fresh bottles every 12 hr. First 4 sets of bottles were discarded. Flies that emerged in subsequent bottles were only used. Those that emerged in the beginning were first discarded and then flies were collected twice at 12 hr interval. Flies collected each time were kept separately in a single bottle. Two days after first collection, males and females from both the bottles were separated. Males were then pooled together and shifted to a new bottle. Flies were used for control or drug treatment two days later.
(§2) Following morning after pooling males for treatment, drugs (Sigma-Aldrich Co, St. Louis, U.S.A.) were first dissolved in distilled water at following concentration: 33.3 mg/ml of strychnine (STR), 40 mg/ml of pentylenetetrazol (PTZ), 20 mg/ml of pilocarpine-hydrochloride (PILO), 20 mg/ml of tetraethylammonium chloride (TEA), 10 mg/ml of lithium chloride (LICA), and 10.5 mg/ml of ethosuximide (ESD). Appropriate volume of freshly made drug solutions were then poured in molten fly media, and mixed thoroughly, to achieve a final concentration of 3.33 mg/ml of STR, 4 mg/ml of PTZ, 2 mg/ml of PILO, 2 mg/ml of TEA, 1 mg/ml of LICA, and 1.05 mg/ml of ESD. For control, i.e., normal food (NF), distilled water of same volume as drug solution was added in the medium and mixed. Following this, the molten media was dispensed in glass vials, stored overnight at 4° C. and then used for above treatment of flies. Thirty male flies were shifted to each of the seven treatment vials, NF, STR, PTZ, PILO, TEA, LICA and ESD. Flies were maintained at 22±1° C., 60% RH, and 12 hrs light (9 AM to 9 PM) and 12 hours dark cycle.
(§3) Negative geotaxis assays for measuring height climbed and climbing speed, and horizontal locomotion assay for measuring distance walked—were performed at room temperature, between 9 AM to 9 PM. They were all performed at a specified area in a room, where same light sources were always used. While measuring various locomotor activities, extreme care was taken to ensure that the room is quiet, and the table onto which assays were performed undisturbed and vibration free. Utmost care was taken to ensure identical handling of flies, in minutest details. For measuring height climbed, climbing speed and distance walked, a single fly was randomly selected at a time. This was achieved by first inverting flies from a given treatment vial into an empty vial and then continuously and gently shaking and inverting both the vials in such a way that a single fly is finally trapped in the empty vial. Once trapped, all the three locomotor activities were measured using the same fly, height climbed, climbing speed and distance walked, in that order. One fly each from NF, STR, PTZ, PILO, TEA, LICA, and ESD, selected randomly, was first scored and then the same exercise was repeated for another two flies. Once a fly was scored for all the three locomotor activities, it was discarded. Flies were particularly checked for intact legs and wings, before they were used in negative geotaxis and horizontal locomotion assays.
(§4) A glass tube of 1.7 cm diameter and […], along with two cotton plugs were used in negative geotaxis and horizontal locomotion assays. The tube was length wise marked with lines at every cm. Three flies from each treatment were assayed. Each fly was assayed 10 times in succession.

[2] = test system: Drosophila melanogaster adult males (wild type Oregon-R strain); experiment: Negative geotaxis assay (height climbed, climbing speed); type: in vivo; details: for Height climbed by flies, Mean / Climbing speed of flies, Mean: n=30
Method: as §1, §2, §3, §4

[3] = day 7 of the beginning of treatment, drug in fly medium
[4] = 4th day after drug withdrawal (21st day of beginning of treatment)
[5] = 31st day after drug withdrawal (48th day of beginning of treatment)
[6] = 31st day after drug withdrawal, result in words
[7] = day 7 of the beginning of treatment, result in words

Structure (SMILES) | Distance walked by flies, Mean ([1]; 4th day after drug withdrawal) | Distance walked by flies, Mean ([1]; 31st day after drug withdrawal) | distance walked than the control [1] | Distance walked, Mean [1, 3] | Height climbed by flies, Mean [2, 4] | Climbing speed of flies, Mean ([2]; 4th day after drug withdrawal) | Height climbed by flies, Mean [2, 5] | Climbing speed of flies, Mean ([2]; 31st day after drug withdrawal) | climbing speed than the control (Table 2) [2, 6] | Climbing speed, Mean [2, 3] | Height climbed, Mean [2, 3] | height climbed compared to NF, the control [2, 7] | Distance walked, Mean ([1]; 168 h) | Climbing speed, Mean ([2]; 168 h) | Height climbed, Mean ([2]; 168 h) | height climbed compared to NF ([2]; 4th day after drug withdrawal, result in words)
[Cl-].[Li+] [LICA, lithium chloride] | 33*** cm marks crossed per minute | 6.93*** cm marks crossed per minute | lesser | 34.23 cm marks crossed per minute | 25.33 cm | 1.22* cm/sec | 11.4* cm | 1.3*** cm/sec | lower | 1.9*** cm/sec | 35.8*** cm | increase |  |  |  | 
CC[C@@H]1C(=O)OC[C@@H]1Cc1cncn1C [PILO, pilocarpine-hydrochloride] | 33.83** cm marks crossed per minute | 21.16 cm marks crossed per minute |  | 48.53*** cm marks crossed per minute | 19.96 cm | 1.32** cm/sec | 16.46 cm | 1.14** cm/sec |  | 1.52*** cm/sec | 34.66*** cm | increase |  |  |  | 
C1CCc2nnnn2CC1 [PTZ, pentylenetetrazol] | 28.03*** cm marks crossed per minute | 12.5* cm marks crossed per minute | lesser |  |  | 1.25** cm/sec |  | 1.37*** cm/sec | lower |  |  | increase | 42.5** cm marks crossed per minute | 1.63*** cm/sec | 29.13*** cm | 
CC[N+](CC)(CC)CC.[Cl-] [TEA, tetraethylammonium chloride] | 26.76*** cm marks crossed per minute | 27.16 cm marks crossed per minute |  | 45.1*** cm marks crossed per minute | 22.13 cm | 1.11 cm/s | 16.2 cm |  |  | 1.67*** cm/sec | 32*** cm | increase |  |  |  | 
CCC1(C)CC(=O)NC1=O (centres unmarked) [ESD, ethosuximide] | 40.16*** cm marks crossed per minute | 30.63 cm marks crossed per minute |  | 37.1 cm marks crossed per minute | 32.66*** cm | 1.5*** cm/sec | 19.5*** cm | 1.52*** cm/sec | greater | 0.98 cm/s | 25.66* cm | increase |  |  |  | increase
O=C1C[C@@H]2OCC=C3CN4CC[C@]56c7ccccc7N1[C@H]5[C@H]2[C@H]3C[C@H]46 [STR, strychnine] | 43.66 cm marks crossed per minute | 27.66 cm marks crossed per minute |  | 39.33* cm marks crossed per minute | 26.26 cm | 1.29** cm/sec | 15.8 cm | 1.04* cm/sec |  | 1.53*** cm/sec | 33.36*** cm |  |  |  |  | 
